These results are taken from patent US20210052566A1, “METHODS FOR TREATING HEPATITIS B VIRUS (HBV) INFECTION” (INSERM (INSTITUT NATIONAL DE LA SANTÉ ET DE LA RECHERCHE …, priority 2018, published 2021).

Assay [1] deals with HBV genotype D. In words: Anti-HBV properties in persistently infected dHepaRG cells, genotype D (post-infection treatment). The following applies: treated three times with 10 microM. It counts as cell-based, Hepatitis B virus. As to the method: (§1) FIG. 1. Experimental outlines. Treatment schemes: (a) Treatments in pre-infection: dHepaRG cells were treated for 24 h (at day −1) with 100 nM of PreS1 peptide (PreS1-pep) or 10 μM of 1C8, or untreated (NT). At day 0, cells were inoculated with HBV (MOI=250) or with HDV (MOI=25) in the presence of drugs for 24 h. For the tenofovir control (TDF at 10 μM), cells were treated at day 1 and 4 post-infection. Supernatant and cells were harvested at day 7 post-infection. (b) Treatments in post-infection: dHepaRG cells were inoculated with HBV (MOI=250) or with HDV (MOI=25). At days 4, 7 and 9 post infection, cells were treated with TDF 10 μM, lamivudine (3TC) at 10 μM, 1C8 10 μM or untreated (NT). Supernatant and cells were harvested at day 11 postinfection.
FIG. 5. Anti-HBV properties of 1C8 in persistently infected dHepaRG cells: genotype D. Differentiated HepaRG were infected with HBV genotype D at a MOI of 100 vge/cell or HDV genotype 1 at a MOI of 10 vge/cell for 7 days before being treated trice every 2-3 days with indicated molecules at a concentration of 10 microM. A) Total DNA and RNA were extracted from cells and subjected to qPCR and RTqPCR to detect HBV cccDNA, total HBV RNA or pregenomic HBV RNA. B) HBs and HBe secreted antigens in supernatant were quantified by ELISA, whereas HBV DNA contained in virions was quantified by qPCR after viral nucleic acid extraction from supernatant. C) Intracellular HDV RNA was quantified by RTqPCR after total RNA extraction from cells. D) Viability was monitored in 1C8-treated (or control treated; puromycin is a positive toxic molecule) cells by CellTiter-Glo® luminescent cell viability assay. Results are the mean+SEM of n=3 performed with 3 different differentiations of HepaRG. Statistics were done by two-tailed Mann-Whitney test, with following significativity: *P<0.05, **P<0.01, ***P<0.001, ****P<0.0001. nd=not determined
Human liver progenitor HepaRG cells were cultured in Williams medium (ThermoFisher) supplemented with 10% of FBS (Perbio), Penicillin/Streptomycin (500 U/mL), glutamine (2 mM), hydrocortisone Upjohn (2.5 mg/L; Serb laboratory), insulin (5 mg/L; Sigma Aldrich). For the differentiation process 2% of DMSO was added to the above-described supplemented Williams medium. […] The multiplicity of infection (MOI; expressed as virus genome equivalent/cell) is indicated in the figure legends, but was of 100 vge/cell if not precised.
From cell culture supernatants, secreted HBe and HBs antigens were quantified by ELISA, using a chemiluminescence immunoassay kit (Autobio, China) following manufacturer's instructions. […]
A HBV standard was used for quantification of extracellular viral DNA and RNA. […]

For assay [2], the system named is HDV genotype 1. In words: Establishment of HDV infection in dHepaRG (treatment 24 h before and during inoculation). It counts as cell-based, hepatitis delta virus. Conditions: 1C8 10 microM, Entry Inh. 100 nM. As to the method: as §1
FIG. 7. Effect of 1C8 on de novo establishment of ccDNA in dHepaRG (genotype D). […] B) HBs and HBe secreted antigens in supernatant were quantiUied by ELISA, whereas HBV DNA contained in virions was quantified by qPCR after viral nucleic acid extraction from supernatant. […] Statistics were done by two-tailed Mann-Whitney test, with following signiUicativity: *P<0.05, **P<0.01, ***P<0.001, ****P<0.0001. nd=not determined.

Assay [3] has as its target serine/arginine-rich splicing factor 10 (SRSF10) (human) (UniProt O75494). As to the kind of experiment: Strep-Tactin affinity purification of StrepTag-HBc complexes from hepatocyte nuclei, LC-MS/MS.

Sequence of serine/arginine-rich splicing factor 10 (SRSF10) (human) (O75494 whole entry): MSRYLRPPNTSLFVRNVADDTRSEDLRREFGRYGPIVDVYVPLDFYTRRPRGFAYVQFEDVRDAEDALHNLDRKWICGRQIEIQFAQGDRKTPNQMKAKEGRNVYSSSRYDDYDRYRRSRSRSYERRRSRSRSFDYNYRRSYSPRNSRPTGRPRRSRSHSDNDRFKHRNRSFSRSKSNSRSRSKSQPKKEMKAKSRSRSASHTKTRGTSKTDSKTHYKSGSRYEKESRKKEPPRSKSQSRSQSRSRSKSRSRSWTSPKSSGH
Sequence of StrepTag-HBc (core/capsid protein of HBV with a StrepTag at the N terminus) (P03146 whole entry): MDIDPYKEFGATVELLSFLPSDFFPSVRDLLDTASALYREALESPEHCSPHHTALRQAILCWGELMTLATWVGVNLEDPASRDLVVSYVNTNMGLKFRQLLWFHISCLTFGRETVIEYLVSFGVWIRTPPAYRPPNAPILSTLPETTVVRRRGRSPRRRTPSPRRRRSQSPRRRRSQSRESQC

For `C[C@H](Cn1cnc2c(N)ncnc21)OCP(=O)(O)O` [tenofovir, reference compound], the “impact on accumulation of intracellular HBV RNA” value in assay [1] was “not capable to impact”.

Take “Entry Inh.: PreS1 peptide, aa 2 to 48 of HBV PreS1 (SEQ ID No 1), N-terminal myristoyl, used for inhibiting HBV entry [reference compound]”: the “block of the establishment of HDV infections” value in assay [2] is “inhibited”.

Compound “StrepTag-HBc (core/capsid protein of HBV with a StrepTag at the N terminus)” displayed an enrichment in HBc complexes in assay [3] of 3000 times.
